#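 Cells were grown in 96-well plates and exposed to each compound for 48 hours at five concentrations; endpoints were interpolated linearly between bracketing concentrations, or set to the highest concentration if not reached. TGI: concentration producing complete growth inhibition.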
# Columns and labels:
# Assay in all cases: DTP human tumour cell line panel, 48 h
# SF-539 CNS = test system: SF-539 CNS
# M19-MEL melanoma = test system: M19-MEL melanoma
# KM12 colon = test system: KM12 colon
# HCT-15 colon = test system: HCT-15 colon
# OVCAR-5 ovarian = test system: OVCAR-5 ovarian
# SNB-75 CNS = test system: SNB-75 CNS
# LXFL 529 NSCLC = test system: LXFL 529 NSCLC
# NCI-H23 lung = test system: NCI-H23 lung
# SW-620 colon = test system: SW-620 colon
# NCI-H460 lung = test system: NCI-H460 lung
# ACHN renal = test system: ACHN renal
# UO-31 renal = test system: UO-31 renal
# K-562 leukemia = test system: K-562 leukemia
# HCT-116 colon = test system: HCT-116 colon
# 786-0 renal = test system: 786-0 renal
# SN12C renal = test system: SN12C renal
# SK-MEL-2 melanoma = test system: SK-MEL-2 melanoma
# HT29 colon = test system: HT29 colon
# A498 renal = test system: A498 renal
# OVCAR-3 ovarian = test system: OVCAR-3 ovarian
# HOP-62 NSCLC = test system: HOP-62 NSCLC
# SK-MEL-5 melanoma = test system: SK-MEL-5 melanoma
# CAKI-1 renal = test system: CAKI-1 renal
# NCI-H522 lung = test system: NCI-H522 lung
# SK-MEL-28 melanoma = test system: SK-MEL-28 melanoma
# MOLT-4 leukemia = test system: MOLT-4 leukemia
# UACC-257 melanoma = test system: UACC-257 melanoma
# DMS 114 small cell lung = test system: DMS 114 small cell lung
# SNB-19 CNS = test system: SNB-19 CNS
# UACC-62 melanoma = test system: UACC-62 melanoma
# EKVX NSCLC = test system: EKVX NSCLC
# HL-60(TB) leukemia = test system: HL-60(TB) leukemia
# SNB-78 CNS = test system: SNB-78 CNS
# TK-10 renal = test system: TK-10 renal
# M14 melanoma = test system: M14 melanoma
# U251 CNS = test system: U251 CNS
# A549 NSCLC = test system: A549 NSCLC
# XF 498 CNS = test system: XF 498 CNS
# OVCAR-4 ovarian = test system: OVCAR-4 ovarian
# CCRF-CEM leukemia = test system: CCRF-CEM leukemia
# RXF 393 renal = test system: RXF 393 renal
# SF-268 CNS = test system: SF-268 CNS
# OVCAR-8 ovarian = test system: OVCAR-8 ovarian
# DMS 273 small cell lung = test system: DMS 273 small cell lung
# SF-295 CNS = test system: SF-295 CNS
# SR leukemia = test system: SR leukemia
# DLD-1 colon = test system: DLD-1 colon
# NCI-H226 lung = test system: NCI-H226 lung
# SK-OV-3 ovarian = test system: SK-OV-3 ovarian
# IGROV1 ovarian = test system: IGROV1 ovarian
# COLO 205 colon = test system: COLO 205 colon
# KM20L2 colon = test system: KM20L2 colon
# HOP-92 NSCLC = test system: HOP-92 NSCLC
# MALME-3M melanoma = test system: MALME-3M melanoma
# LOX IMVI melanoma = test system: LOX IMVI melanoma
# HCC-2998 colon = test system: HCC-2998 colon
# RPMI-8226 leukemia = test system: RPMI-8226 leukemia
smiles,measurement,setting,value
CCOC(=O)C1CCCCN1C(=O)OCc1ccccc1 (stereo unspecified),TGI,SF-539 CNS,> 100 µM
same,TGI,M19-MEL melanoma,> 100 µM
same,TGI,KM12 colon,> 100 µM
same,TGI,HCT-15 colon,> 100 µM
same,TGI,OVCAR-5 ovarian,> 100 µM
same,TGI,SNB-75 CNS,> 100 µM
same,TGI,LXFL 529 NSCLC,> 100 µM
same,TGI,NCI-H23 lung,> 100 µM
same,TGI,SW-620 colon,> 100 µM
same,TGI,NCI-H460 lung,> 100 µM
same,TGI,ACHN renal,> 100 µM
same,TGI,UO-31 renal,> 100 µM
same,TGI,K-562 leukemia,> 100 µM
same,TGI,HCT-116 colon,> 100 µM
same,TGI,786-0 renal,> 100 µM
same,TGI,SN12C renal,> 100 µM
same,TGI,SK-MEL-2 melanoma,> 100 µM
same,TGI,HT29 colon,> 100 µM
same,TGI,A498 renal,> 100 µM
same,TGI,OVCAR-3 ovarian,> 100 µM
same,TGI,HOP-62 NSCLC,> 100 µM
same,TGI,SK-MEL-5 melanoma,> 100 µM
same,TGI,CAKI-1 renal,> 100 µM
same,TGI,NCI-H522 lung,> 100 µM
same,TGI,SK-MEL-28 melanoma,> 100 µM
same,TGI,MOLT-4 leukemia,> 100 µM
same,TGI,UACC-257 melanoma,> 100 µM
same,TGI,DMS 114 small cell lung,> 100 µM
same,TGI,SNB-19 CNS,> 100 µM
same,TGI,UACC-62 melanoma,> 100 µM
same,TGI,EKVX NSCLC,> 100 µM
same,TGI,HL-60(TB) leukemia,> 100 µM
same,TGI,SNB-78 CNS,> 100 µM
same,TGI,TK-10 renal,> 100 µM
same,TGI,M14 melanoma,> 100 µM
same,TGI,U251 CNS,> 100 µM
same,TGI,A549 NSCLC,> 100 µM
same,TGI,XF 498 CNS,> 100 µM
same,TGI,OVCAR-4 ovarian,> 100 µM
same,TGI,CCRF-CEM leukemia,> 100 µM
same,TGI,RXF 393 renal,> 100 µM
same,TGI,SF-268 CNS,> 100 µM
same,TGI,OVCAR-8 ovarian,> 100 µM
same,TGI,DMS 273 small cell lung,> 100 µM
same,TGI,SF-295 CNS,> 100 µM
same,TGI,SR leukemia,> 100 µM
same,TGI,DLD-1 colon,> 100 µM
same,TGI,NCI-H226 lung,> 100 µM
same,TGI,SK-OV-3 ovarian,> 100 µM
CNCC(=O)Nc1ccc2c(c1)C(=O)c1ccc(NC(=O)CNC)cc1C2=O,TGI,SF-539 CNS,11.2 µM
same,TGI,IGROV1 ovarian,38 µM
same,TGI,KM12 colon,10.4 µM
same,TGI,HCT-15 colon,23.2 µM
same,TGI,OVCAR-5 ovarian,34.8 µM
same,TGI,SNB-75 CNS,27.1 µM
same,TGI,LXFL 529 NSCLC,12.3 µM
same,TGI,NCI-H23 lung,31.6 µM
same,TGI,COLO 205 colon,11 µM
same,TGI,KM20L2 colon,21.1 µM
same,TGI,HOP-92 NSCLC,7 µM
same,TGI,SW-620 colon,12.3 µM
same,TGI,MALME-3M melanoma,12.9 µM
same,TGI,NCI-H460 lung,12.3 µM
same,TGI,UO-31 renal,25.7 µM
same,TGI,K-562 leukemia,7.19 µM
same,TGI,HCT-116 colon,11.9 µM
same,TGI,786-0 renal,15.7 µM
same,TGI,SN12C renal,11.9 µM
same,TGI,SK-MEL-2 melanoma,11.7 µM
same,TGI,HT29 colon,16.2 µM
same,TGI,A498 renal,28.5 µM
same,TGI,OVCAR-3 ovarian,11.1 µM
same,TGI,HOP-62 NSCLC,9.98 µM
same,TGI,SK-MEL-5 melanoma,17.9 µM
same,TGI,CAKI-1 renal,20 µM
same,TGI,NCI-H522 lung,4.81 µM
same,TGI,SK-MEL-28 melanoma,10.1 µM
same,TGI,MOLT-4 leukemia,10.1 µM
same,TGI,UACC-257 melanoma,16.1 µM
same,TGI,DMS 114 small cell lung,7.12 µM
same,TGI,UACC-62 melanoma,22.2 µM
same,TGI,SNB-78 CNS,10.7 µM
same,TGI,LOX IMVI melanoma,4.17 µM
same,TGI,TK-10 renal,44.9 µM
same,TGI,M14 melanoma,11.8 µM
same,TGI,U251 CNS,10.4 µM
same,TGI,A549 NSCLC,25.6 µM
same,TGI,HCC-2998 colon,14.6 µM
same,TGI,XF 498 CNS,8.25 µM
same,TGI,OVCAR-4 ovarian,5.68 µM
same,TGI,CCRF-CEM leukemia,11 µM
same,TGI,RXF 393 renal,20.3 µM
same,TGI,OVCAR-8 ovarian,10.2 µM
same,TGI,DMS 273 small cell lung,10.7 µM
same,TGI,SF-295 CNS,18.6 µM
same,TGI,SR leukemia,7.54 µM
same,TGI,DLD-1 colon,29.9 µM
same,TGI,NCI-H226 lung,20.3 µM
same,TGI,SK-OV-3 ovarian,3.81 µM
O=C1OC(O)c2cc3c(cc21)OCO3 (stereo unspecified),TGI,SF-539 CNS,> 100 µM
same,TGI,M19-MEL melanoma,> 100 µM
same,TGI,IGROV1 ovarian,> 100 µM
same,TGI,KM12 colon,> 100 µM
same,TGI,HCT-15 colon,> 100 µM
same,TGI,SNB-75 CNS,> 100 µM
same,TGI,LXFL 529 NSCLC,> 100 µM
same,TGI,NCI-H23 lung,> 100 µM
same,TGI,COLO 205 colon,> 100 µM
same,TGI,HOP-92 NSCLC,> 100 µM
same,TGI,SW-620 colon,> 100 µM
same,TGI,MALME-3M melanoma,> 100 µM
same,TGI,NCI-H460 lung,> 100 µM
same,TGI,UO-31 renal,> 100 µM
same,TGI,K-562 leukemia,> 100 µM
same,TGI,HCT-116 colon,> 100 µM
same,TGI,786-0 renal,> 100 µM
same,TGI,SN12C renal,> 100 µM
same,TGI,SK-MEL-2 melanoma,> 100 µM
same,TGI,HT29 colon,> 100 µM
same,TGI,A498 renal,> 100 µM
same,TGI,OVCAR-3 ovarian,> 100 µM
same,TGI,HOP-62 NSCLC,> 100 µM
same,TGI,SK-MEL-5 melanoma,> 100 µM
same,TGI,CAKI-1 renal,> 100 µM
same,TGI,NCI-H522 lung,> 100 µM
same,TGI,SK-MEL-28 melanoma,> 100 µM
same,TGI,MOLT-4 leukemia,> 100 µM
same,TGI,UACC-257 melanoma,> 100 µM
same,TGI,DMS 114 small cell lung,> 100 µM
same,TGI,SNB-19 CNS,> 100 µM
same,TGI,UACC-62 melanoma,> 100 µM
same,TGI,EKVX NSCLC,> 100 µM
same,TGI,HL-60(TB) leukemia,> 100 µM
same,TGI,SNB-78 CNS,> 100 µM
same,TGI,LOX IMVI melanoma,> 100 µM
same,TGI,RPMI-8226 leukemia,> 100 µM
same,TGI,TK-10 renal,> 100 µM
same,TGI,M14 melanoma,> 100 µM
same,TGI,U251 CNS,> 100 µM
same,TGI,A549 NSCLC,> 100 µM
same,TGI,HCC-2998 colon,> 100 µM
same,TGI,XF 498 CNS,> 100 µM
same,TGI,OVCAR-4 ovarian,> 100 µM
same,TGI,CCRF-CEM leukemia,> 100 µM
same,TGI,RXF 393 renal,> 100 µM
same,TGI,SF-268 CNS,> 100 µM
same,TGI,OVCAR-8 ovarian,> 100 µM
same,TGI,DMS 273 small cell lung,> 100 µM
same,TGI,SF-295 CNS,> 100 µM
same,TGI,DLD-1 colon,> 100 µM
same,TGI,SK-OV-3 ovarian,> 100 µM
